In patent US8618178B2, “Method and substances for treating T-cell mediated autoimmune diseases” (Eberhard-Karls-Universitaet Tuebingen Universitaetsklinikum, priority 2006, dated 2013):

Tests used:
Assay type in all cases: cell-based, mouse
IL-12 = IL-12 production by DC, ELISA of culture supernatants; settings: for effect on IL-12 suppression caused by GSH depletion in DC: exogenous addition, 1 mM
Experimental: (§1) IL-4, IL-10, IL-12 and interferon-γ were determined using the ELISA (enzyme linked immunosorbent assay) set or with the use of individual components from BD BioSciences. IL-23 in the supernatant was determined using the ELISA set (eBioscience). For intracytoplasmic cytokine analyses, the T cells were restimulated with PMA/ionomycin or with APC and peptide in the presence of brefeldin A, then fixed and permeabilized and stained. For the surface staining, anti-CD4 or KJ1-26 antibodies were used; the cytokine antibodies (PE labeled) were all obtained from BD Pharmingen.
As antigen presenting cells (APC), T cell depleted spleen cells from syngenic mice were used. Dendritic cells (DC) which were obtained from bone marrow (BMDC) and cultured with GM-CSF were used for the relevant experiments on day 7 of culturing. For the experiment, in each case an equal number of APC were cultured either with the medium alone, with L-BSO (C8H18N2O3S, 0.5 mM), dimethyl sulfoxide DMSO(C2H6OS), dimethyl fumarate DMF (C6H8O4, dissolved in DMSO, 70 μM), or calcium monomethyl fumarate (MMF; CaC10H10O8, 200 μM). All substances except for MMF (Fumapharm) were purchased from Sigma-Aldrich. At the respective stated times (see below) the cells were either analyzed directly for their GSH content, […] 055.B5 (Sigma-Aldrich) or CpG-DNA 1668 (MWG Biotech) and IL-4 (Stratmann). In order to raise the GSH level again, 1 mM GSH-OEt (C12H21N3O6S; Sigma-Aldrich) or 1 mM NAC (Sigma-Aldrich) was added.

BMDC = experiment: Measurement of reactive oxygen species (ROS) in DC with dichlorofluorescein, flow cytometry; settings: for effect on DMF-induced ROS increase in DC: added to DMF, 1 mM
Experimental: For the measurement of reactive oxygen species (ROS) in DC and APC, the fluorescent dye 2′,7′ dichlorofluorescein (H2 DCFDA, Molecular Probes, Eugene, USA) was used. 5×10^5 DC were preincubated in 1 ml of RPMI medium (without mercaptoethanol) for 60 mins at 37° C. in the incubator with 1% DMSO or 10 μg/ml DMF+/−NAC (1 mM) or GSX (1 mM). After this preincubation, 1 μM/ml H2 DCFDA was added and the cells incubated for a further 30 mins at 37° C. Within one hour, the fluorescence produced was detected using flow cytometry (FL1).
(§2) As antigen presenting cells (APC), T cell depleted spleen cells from syngenic mice were used. Dendritic cells (DC) which were obtained from bone marrow (BMDC) and cultured with GM-CSF were used for the relevant experiments on day 7 of culturing. For the experiment, in each case an equal number of APC were cultured either with the medium alone, with L-BSO (C8H18N2O3S, 0.5 mM), dimethyl sulfoxide DMSO(C2H6OS), dimethyl fumarate DMF (C6H8O4, dissolved in DMSO, 70 μM), or calcium monomethyl fumarate (MMF; CaC10H10O8, 200 μM). All substances except for MMF (Fumapharm) were purchased from Sigma-Aldrich. At the respective stated times (see below) the cells were either analyzed directly for their GSH content, used for T cell stimulation or stimulated for […] with Escherichia coli lipopolysaccharides 055.B5 (Sigma-Aldrich) or CpG-DNA 1668 (MWG Biotech) and IL-4 (Stratmann). In order to raise the GSH level again, 1 mM GSH-OEt (C12H21N3O6S; Sigma-Aldrich) or 1 mM NAC (Sigma-Aldrich) was added.
For testing the potential of pharmaceutical substances to induce the ROS, the following procedure was developed: for the measurement of reactive oxygen species (ROS) in cells, the fluorescent dye 2′,7′ dichlorofluorescein (H2 DCFDA) is used. The absorption spectrum of the substance is 492-495 nm and the emission spectrum lies in the range between 517-527 nm. On induction of cell stress, e.g., by the administration of ROS-causing reagents, oxidation of the H2 DCFDA to DCFDA+H2 occurs. The fluorescence arising as a result can be detected using flow cytometry (FL1).

IL-23 = IL-23 production by DC, ELISA of culture supernatants; settings: GSH-OEt added to DMF
Experimental: as §1
as §2, with “added. The GSH reservoirs in mice were depleted by feeding with DMF or MMF, and in man by treatment with Fumaderm®.” for “added.”

IL-10 = IL-10 production by DC, ELISA of culture supernatants; settings: GSH-OEt added to DMF
Experimental: as §1
as §2, with “All substances except for MMF (Fumapharm) were purchased from Sigma-Aldrich.” left out, “In order to raise the GSH level again, 1 mM GSH-OEt (C12H21N3O6S; Sigma-Aldrich) or 1 mM NAC (Sigma-Aldrich) was added.” left out

Row | Structure (SMILES) | effect on IL-12 suppression caused by GSH depletion in DC (IL-12) | effect on DMF-induced ROS increase in DC (BMDC) | IL-23 production in DC, added to DMF (IL-23) | IL-10 production in DC, added to DMF (IL-10) | IL-12 production by DC (IL-12; after stimulation with LPS) | intracellular ROS in DC (BMDC; dichlorofluorescein, flow cytometry)
1 | CCOC(=O)CNC(=O)[C@H](CS)NC(=O)CC[C@H](N)C(=O)O [GSH-OEt, GSH ethyl ester] | neutralized the IL-12 suppression | completely neutralized | restored IL-23 production | decreased IL-10 production |  | 
2 | OO [H2O2, hydrogen peroxide] |  |  |  |  | lower the production of IL-12 | induction of ROS
3 | CC(=O)N[C@@H](CS)C(=O)O [NAC, N-acetylcysteine] | same effects as GSH-OEt | completely neutralized |  |  |  | 
